# Reference: publication PMC8942850, “Boron clusters as broadband membrane carriers” (Nature, 2022)
# How the values were obtained:
# [1] = Carboxyfluorescein (CF) leakage assay, anionic vesicles; conditions: anionic liposomes DMPE/DPPG/CHOL 1/2/1, 13 µM phospholipids, 10 mM Tris, 140 mM NaCl, pH 7.4; CF fluorescence; Hill analysis; read-out: EC50 membrane-disrupting activity (CF leakage)
# Method: A thin lipid film was prepared by evaporating a lipid solution with a stream of nitrogen and then dried in vacuo overnight. For the zwitterionic vesicles, 25 mg EYPC in 1 ml of CHCl3 was used, and for the anionic vesicles, DMPE/DPPG/CHOL (4.4/10.4/2.6 mg, 1/2/1 molar ratio) in a 1:1 mixture of CHCl3 and MeOH (1 ml) was used. […]
# For leakage experiments with the lipid⊃CF vesicles, stock solutions (6 µl) were diluted with the respective buffer in a disposable plastic cuvette and gently stirred (total volume 2,000 µl, final lipid concentration 13 µM). CF fluorescence was monitored at λem = 517 nm (λex = 492 nm) as a function of time after addition of the respective activating or disrupting agent (cluster, WR7 or pyrenebutyrate) at 50 s, and Triton X-100 (24 µl 1.2% (wt/vol)) at 600 s, the latter to lyse the vesicles, for calibration. Fluorescence intensities were normalized to fractional emission intensity as I(t) = (It − I0)/(I∞ − I0), where I0 = It before disrupting agent addition and I∞ = It after Triton X-100 lysis. […]
# Extended Data Fig. 1 Assays testing for stability vs leakage of the vesicles. a, Response of the HPTS/DPX assay towards a membrane-disrupting agent and chemical structures of the fluorescent dye HPTS and the quencher DPX. In this assay, large unilamellar vesicles are loaded with the HPTS/DPX probe/quencher pair, such that the fluorescence of HPTS is quenched. […]
# [2] = Dynamic light scattering (vesicle size, cargo-carrier aggregates); type: physicochemical
# Method: DLS experiments were carried out on a Malvern Instruments DTS Nano 2000 Zeta-Sizer.
# Extended Data Fig. 1 Assays testing for stability vs leakage of the vesicles. a, Response of the HPTS/DPX assay towards a membrane-disrupting agent and chemical structures of the fluorescent dye HPTS and the quencher DPX. In this assay, large unilamellar vesicles are loaded with the HPTS/DPX probe/quencher pair, such that the fluorescence of HPTS is quenched. […] The cluster B12I12^2− (red trace) was identified as lytic agent because the mere addition of the cluster led to a fluorescence increase. […] In this assay, large unilamellar vesicles are loaded with CF at high concentration, such that the fluorescence is quenched. […] The cluster B12I12^2− (red trace) was identified as lytic agent because its mere addition led to a fluorescence increase. […] In b, e and f, Triton X-100 was added at t = 600 s to induce vesicle lysis and allow data normalization. Source data
# HeLa cells [3] = experiment: Cytosolic TAMRA-R8 concentration (digitonin fractionation, fluorescence); type: cell-based; conditions: Extended Data Fig.5d; for concentration_uM, mean: mean of 4 experiments
# Method: Cytosolic extracts were obtained according to a previously described protocol[55] by incubation with digitonin, a steroidal saponin that preferentially permeabilizes cholesterol-rich membranes, such as the plasma membrane, with minor effects on intracellular membranes. […] Cells were incubated on ice with 600 µl of 35 µg ml^−1 digitonin in PBS Ca/Mg for 10 min, the supernatant with the cytosolic fraction collected and cells washed with 200 µl of PBS Ca/Mg, combining this supernatant with the previous extract. The non-cytosolic fraction was collected by incubation of the cells with 800 µl of 1% Triton X-100 in PBS. […] For the complementary HPLC analysis, phosphate buffer was replaced by TBS (20 mM Tris–HCl, pH 7.2, 150 mM NaCl, 0.5 mM CaCl2, 0.5 mM MgCl2) and digitonin extraction was performed as indicated above. An aliquot of these extracts was used for β-hexosaminidase activity determination. Cytosolic extracts were lyophilized and resuspended in 1:10 volumes of H2O:CH3CN 1:1 with 1% TFA, and analysed by HPLC (RP-HPLC Agilent Luna 5U C18 100 Å, H2O (0.1% TFA)/CH3CN (0.1% TFA) 100:0 (0→5 min); 100:0→5:95 (5→20 min)) by monitoring the 555-nm absorbance of the TAMRA chromophore.
# The quality of fractionation was assessed by lysosomal β-hexosaminidase activity, using 4-nitrophenyl 2-acetamido-2-deoxy-β-D-glucopyranoside as substrate. Briefly, 20 µl of extract was incubated with 80 µl of 7.5 mM substrate in 100 mM citrate buffer, pH 4.7, for 40 min at 37 °C, and the reaction was stopped by addition of 200 µl of 0.2 M Tris solution. Absorbance at 405 nm was measured in a plate reader. As blank, wells containing only the substrate were used. […]
# HeLa cells [4] = experiment: Confocal imaging of TAMRA-R8 / TAMRA-D-R8 / TAMRA uptake in living cells
# Source text: Representative images of two biological replicates. […] Scale bars, 50 μm.
# Representative images of two biological replicates. […] Source data
# (1 picture or pasted object on this page, not shown here)
substance,measurement,setting,value
B12Br12^2−,EC50,[1],960 ± 100 µM
same,DLS of combinations of cluster with the different cargos (aggregates),[2],did not show any detectable signal of particles
same,concentration_uM,"HeLa cells [3]; 0 uM B12Br12 (no carrier), experiment 1",286.3 nM
same,concentration_uM,"HeLa cells [3]; 0 uM B12Br12 (no carrier), experiment 2",345 nM
same,concentration_uM,"HeLa cells [3]; 0 uM B12Br12 (no carrier), experiment 3",274.3 nM
same,concentration_uM,"HeLa cells [3]; 0 uM B12Br12 (no carrier), experiment 4",342.3 nM
same,"concentration_uM, mean",HeLa cells [3]; 0 uM B12Br12 (no carrier),312 nM
same,concentration_uM,"HeLa cells [3]; 10 uM B12Br12, experiment 1",1393 nM
same,concentration_uM,"HeLa cells [3]; 10 uM B12Br12, experiment 2",1647 nM
same,concentration_uM,"HeLa cells [3]; 10 uM B12Br12, experiment 3",1247 nM
same,concentration_uM,"HeLa cells [3]; 10 uM B12Br12, experiment 4",1117 nM
same,"concentration_uM, mean",HeLa cells [3]; 10 uM B12Br12,1351 nM
same,TAMRA-R8 fluorescence pattern in cells in presence of cluster,HeLa cells [4],diffuse peptide fluorescence
